Assay results published in patent publication US12187709B2 (Genentech, Inc., priority 2021, dated 2025).

Tests used:
[1] = molecular target: Human Cbl-b (residues 40-426) (Homo sapiens (Human), UniProt Q13191); test: Cbl-b SPR assay; type: binding; settings: for Fold of selectivity: C-cbl SPR Kd vs Cbl-b SPR Kd; for Kd: SPR, 20° C.
Method in brief: (§1)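 Binding is measured by surface plasmon resonance against both isoforms, with double referencing and 1:1 kinetic fitting. Dissociation time is tuned to 4-5 half-lives.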

Cbl-b = Cbl-b (Homo sapiens (Human), UniProt Q13191); test: Cbl-b LCK Ub TR-FRET assay (Cbl-b Lck HTRF); type: biochemical; settings: for IC50: Cbl-b LCK Ub TR-FRET; for fold-selectivity (Cbl-b over C-cbl) / (fold-selectivity) Cbl-b and C-Cbl Selectivity: ratio C-cbl Lck HTRF IC50 / Cbl-b Lck HTRF IC50
Cbl-b, sequence (Q13191 40-426): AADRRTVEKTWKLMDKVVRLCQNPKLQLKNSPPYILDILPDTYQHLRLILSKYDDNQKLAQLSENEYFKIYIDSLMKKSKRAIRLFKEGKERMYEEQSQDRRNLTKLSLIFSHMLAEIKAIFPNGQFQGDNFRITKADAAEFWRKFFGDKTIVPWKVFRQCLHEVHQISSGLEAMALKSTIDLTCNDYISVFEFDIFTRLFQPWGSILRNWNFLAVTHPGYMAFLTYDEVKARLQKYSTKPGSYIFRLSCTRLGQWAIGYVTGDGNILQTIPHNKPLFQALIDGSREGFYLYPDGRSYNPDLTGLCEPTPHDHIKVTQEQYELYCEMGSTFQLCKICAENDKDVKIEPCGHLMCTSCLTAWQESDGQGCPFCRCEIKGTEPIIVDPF
Method in brief: (§2)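 Detection reagents added, brief spin, 20 min RT. IC50 fit normalized to no-LCK (low) and DMSO (high) controls.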

c-Cbl (residues 47-435) = c-Cbl (residues 47-435) (Homo sapiens (Human), UniProt P22681); test: c-Cbl SPR assay; type: binding; settings: 20° C.
c-Cbl (residues 47-435), sequence (P22681 47-435): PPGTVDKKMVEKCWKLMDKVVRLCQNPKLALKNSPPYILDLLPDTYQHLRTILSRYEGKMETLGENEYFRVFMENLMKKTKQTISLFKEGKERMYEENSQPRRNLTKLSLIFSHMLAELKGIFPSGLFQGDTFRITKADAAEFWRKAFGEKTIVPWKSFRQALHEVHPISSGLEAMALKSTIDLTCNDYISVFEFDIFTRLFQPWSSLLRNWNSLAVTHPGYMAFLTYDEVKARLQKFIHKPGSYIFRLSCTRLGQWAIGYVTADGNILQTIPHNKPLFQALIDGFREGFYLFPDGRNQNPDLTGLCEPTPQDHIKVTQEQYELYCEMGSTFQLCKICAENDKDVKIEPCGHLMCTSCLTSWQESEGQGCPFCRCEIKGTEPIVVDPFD
Method in brief: as §1

c-Cbl = c-Cbl (Homo sapiens (Human), UniProt P22681); test: C-Cbl LCK Ub TR-FRET assay (C-cbl Lck HTRF); type: biochemical
c-Cbl, sequence (P22681 47-435): as above
Method in brief: as §2

Human Cbl-b (residues 40-426), sequence (Q13191 40-426): as the sequence (Q13191 40-426) above

| Structure (SMILES) | Fold of selectivity [1] | Kd [1] | IC50 (Cbl-b) | fold-selectivity (Cbl-b over C-cbl) (Cbl-b) | Kd (c-Cbl (residues 47-435)) | IC50 (c-Cbl) | IC50 (Cbl-b; Example 121) | (fold-selectivity) Cbl-b and C-Cbl Selectivity (Cbl-b) |
| --- | --- | --- | --- | --- | --- | --- | --- | --- |
| Cn1cnnc1[C@]1(c2cc(NC3CC(F)(F)C3)nc(N3Cc4c(cc(CNC5(C)CCC5)cc4C(F)(F)F)C3=O)c2)C[C@H](C)C1 [Compound 49, 2-(6-((3,3-difluorocyclobutyl)amino)-4-((1s,3s)-3-methyl-1-(4-methyl-4H-1,2,4-triazol-3-yl)cyclobutyl)pyridin-2-yl)-6-(((1-methylcyclobutyl)amino)methyl)-4-(trifluoromethyl)isoindolin-1-one] | 7.0× | 2.2 nM | 14 nM | (1.4x) | 16 nM | 19.6 nM | – | – |
| CS[C@H]1C[C@](c2cccc(N3Cc4c(cc(CNC5(C)CCC5)cc4C(F)(F)F)C3=O)c2)(c2nncn2C)C1 [Compound 323, 2-(3-((1r,3r)-1-(4-methyl-4H-1,2,4-triazol-3-yl)-3-(methylthio)cyclobutyl)phenyl)-6-(((1-methylcyclobutyl)amino)methyl)-4-(trifluoromethyl)isoindolin-1-one] | 12× | 0.47 nM | 5 nM | 1.4x | 5.2 nM | 7.1 nM | – | – |
| CO[C@H]1C[C@@](c2cc(NC3CCCC3)nc(N3Cc4c(cc(CNC5(C)CCC5)cc4C(F)(F)F)C3=O)c2)(c2nncn2C)C1 [Compound 69, 2-(6-(cyclopentylamino)-4-((1S,3S)-3-methoxy-1-(4-methyl-4H-1,2,4-triazol-3-yl)cyclobutyl)pyridin-2-yl)-6-(((1-methylcyclobutyl)amino)methyl)-4-(trifluoromethyl)isoindolin-1-one] | 6.9× | 3.3 nM | 11 nM | (4.9x) | 23 nM | 54 nM | – | – |
| Cn1cnnc1C1(c2cc(C3CC3)nc(N3Cc4c(cc(CNC5(C)CCC5)cc4C(F)(F)F)C3=O)c2)CC(F)(F)C1 [Compound 16, 2-(6-cyclopropyl-4-(3,3-difluoro-1-(4-methyl-4H-1,2,4-triazol-3-yl)cyclobutyl)pyridin-2-yl)-6-(((1-methylcyclobutyl)amino)methyl)-4-(trifluoromethyl)isoindolin-1-one] | 1.3× | 0.25 nM | 6.9 nM | (0.75x) | 0.34 nM | 5.2 nM | – | – |
| C[C@H](CC#N)Nc1cc(C2(c3nncn3C)CC3(COC3)C2)cc(N2Cc3c(cc(CNC4(C)CCC4)cc3C(F)(F)F)C2=O)n1 [Compound 192, (R)-3-((4-(6-(4-methyl-4H-1,2,4-triazol-3-yl)-2-oxaspiro[3.3]heptan-6-yl)-6-(6-(((1-methylcyclobutyl)amino)methyl)-1-oxo-4-(trifluoromethyl)isonidolin-2-yl)pyridin-2-yl)amino)butanenitrile] | 5.7× | 0.3 nM | 13 nM | 0.7x | 1.7 nM | 9.2 nM | – | – |
| CS[C@H]1C[C@@](c2cccc(N3Cc4c(cc(CNC5(C)CCC5)cc4C(F)(F)F)C3=O)c2)(c2nncn2C)C1 [Compound 324, 2-(3-((1s,3s)-1-(4-methyl-4H-1,2,4-triazol-3-yl)-3-(methylthio)cyclobutyl)phenyl)-6-(((1-methylcyclobutyl)amino)methyl)-4-(trifluoromethyl)isoindolin-1-one] | 10× | 0.57 nM | 4.8 nM | 1.5x | 5.7 nM | 7.1 nM | – | – |
| CO[C@H]1C[C@](c2cccc(N3Cc4c(cc(CNC5CC(C)(F)C5)cc4C(F)(F)F)C3=O)c2)(c2nncn2C)C1 (stereo partly drawn) [Compound 497, 6-(((3-fluoro-3-methylcyclobutyl)amino)methyl)-2-(3-((1r,3r)-3-methoxy-1-(4-methyl-4H-1,2,4-triazol-3-yl)cyclobutyl)phenyl)-4-(trifluoromethyl)isoindolin-1-one] | 14× | 1.9 nM | – | – | 26.6 nM | 24 nM | 5.2 nM | 4.7x |
| Cn1cnnc1[C@]1(c2cccc(N3Cc4c(cc(CNC5(C)CCC5)cc4C(F)(F)F)C3=O)c2)C[C@H](CO)C1.O=CO [Compound 99, 2-(3-((1s,3s)-3-(hydroxymethyl)-1-(4-methyl-4H-1,2,4-triazol-3-yl)cyclobutyl)phenyl)-6-(((1-methylcyclobutyl)amino)methyl)-4-(trifluoromethyl)isoindolin-1-one formate] | 4.8× | 48 nM | 86 nM | 3.7x | 230 nM | 320 nM | – | – |
| CC(C)[C@H]1CN(C)CCN1Cc1cc2c(c(C(F)(F)F)c1)CN(c1cc([C@]3(c4nncn4C)C[C@H](C)C3)cc(NC3CCCC3)n1)C2=O (single isomer, unassigned) [Compound 75] | 7.7× | 31 nM | 17 nM | (1.3x) | 230 nM | 22 nM | – | – |
| CO[C@H]1C[C@](c2cccc(N3Cc4c(cc(CNC5CC6C(C5)C6(F)F)cc4C(F)(F)F)C3=O)c2)(c2nncn2C)C1 (stereo partly drawn) [Compound 427, 6-(((6,6-difluorobicyclo[3.1.0]hexan-3-y)amino)methyl)-2-(3-((1r,3r)-3-methoxy-1-(4-methyl-4H-1,2,4-triazol-3-yl)cyclobutyl)phenyl)-4-(trifluoromethyl)isoindolin-1-one] | 14× | 2.6 nM | – | – | 37 nM | 22 nM | 7 nM | 3.1x |
| Cn1cnnc1C1(c2cccc(N3Cc4c(cc(C(N)=O)cc4C(F)(F)F)C3=O)c2)CCC1 [Compound 327, 2-(3-(1-(4-methyl-4H-1,2,4-triazol-3-yl)cyclobutyl)phenyl)-3-oxo-7-(trifluoromethyl)isoindoline-5-carboxamide] | 4.7× | 210 nM | 190 nM | 2.9x | 980 nM | 550 nM | – | – |

Next, values leading:

| Fold of selectivity [1] | Kd [1] | IC50 (Cbl-b) | fold-selectivity (Cbl-b over C-cbl) (Cbl-b) | Kd (c-Cbl (residues 47-435)) | IC50 (c-Cbl) | IC50 (Cbl-b; Example 121) | (fold-selectivity) Cbl-b and C-Cbl Selectivity (Cbl-b) | Structure (SMILES) |
| --- | --- | --- | --- | --- | --- | --- | --- | --- |
| 11× | 110 nM | 200 nM | 1.9x | 1200 nM | 390 nM | – | – | Cn1cnnc1[C@]1(c2cccc(N3Cc4c(cc(CNC5(C)CCC5)cc4C(F)(F)F)C3=O)c2)C[S@+]([O-])C1 [Compound 330, 2-(3-((1s,3s)-3-(4-methyl-4H-1,2,4-triazol-3-yl)-1-oxidothietan-3-yl)phenyl)-6-(((1-methylcyclobutyl)amino)methyl)-4-(trifluoromethyl)isoindolin-1-one] |
| 13× | 3.6 nM | 11 nM | 3.5x | 43 nM | 39 nM | – | – | Cn1cnnc1[C@@H](c1cccc(N2Cc3c(cc(CNC4(C)CCC4)cc3C(F)(F)F)C2=O)c1)C1CC(F)C1 (single isomer, unassigned) [Compound 129] |
| 8× | 15 nM | 29 nM | 3.8x | 120 nM | 110 nM | – | – | Cn1cnnc1C1(c2cccc(N3Cc4c(cc(CNC5(C)CCC5)cc4C(F)(F)F)C3=O)c2)C[S+]([O-])C1 (stereo not drawn) [Compound 331, 2-(3-((1r,3r)-3-(4-methyl-4H-1,2,4-triazol-3-yl)-1-oxidothietan-3-yl)phenyl)-6-(((1-methylcyclobutyl)amino)methyl)-4-(trifluoromethyl)isoindolin-1-one] |
| 0.7× | 560 nM | 260 nM | 2.8x | 390 nM | 720 nM | – | – | CC(=O)C1CC([C@H](c2cccc(N3Cc4c(cc(CNC5(C)CCC5)cc4C(F)(F)F)C3=O)c2)c2nncn2C)C1 (single isomer, unassigned) [Compound 385] |
| 7.8× | 48 nM | 8.3 nM | 5.0x | 380 nM | 42 nM | – | – | Cn1cnnc1[C@]1(c2cccc(N3Cc4c(cc(CNC5(C)CCC5)cc4C(F)(F)F)C3=O)c2)C[C@@H](OCF)C1 [Compound 371, 2-(3-((1r,3r)-3-(fluoromethoxy)-1-(4-methyl-4H-1,2,4-triazol-3-yl)cyclobutyl)phenyl)-6-(((1-methylcyclobutyl)amino)methyl)-4-(trifluoromethyl)isoindolin-1-one] |
| 4.5× | 2 nM | 5.8 nM | 1.1x | 9 nM | 6.5 nM | – | – | Cn1cnnc1[C@@H](c1cccc(N2Cc3c(cc(CNC4(C)CCC4)cc3C(F)(F)F)C2=O)c1)C1CC(OC(F)(F)F)C1 (single isomer, unassigned) [Compound 398] |
| 6.1× | 21 nM | 68 nM | 3.4x | 130 nM | 230 nM | – | – | C[C@H]1C[C@@](c2cccc(N3Cc4c(cc(CNC5(C)CCC5)cc4C(F)(F)F)C3=O)c2)(c2nncn2C)O1 [Compound 123, 2-(3-((2R,4S)-4-methyl-2-(4-methyl-4H-1,2,4-triazol-3-yl)oxetan-2-yl)phenyl)-6-(((1-methylcyclobutyl)amino)methyl)-4-(trifluoromethyl)isoindolin-1-one] |
